In PubChem BioAssay (NCI):
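Each compound was tested at five concentrations against cells in 96-well plates for 48 hours. At the GI50, growth is halved. TGI marks complete inhibition of growth.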

What was measured:
Assay in all cases: NCI-60 cell line screen, 48 h
[1] = system: 786-0 renal
[2] = system: A498 renal
[3] = system: A549 NSCLC
[4] = system: BT-549 breast
[5] = system: CAKI-1 renal
[6] = system: CCRF-CEM leukemia
[7] = system: COLO 205 colon
[8] = system: DU-145 prostate
[9] = system: HCC-2998 colon
[10] = system: HCT-116 colon
[11] = system: HCT-15 colon
[12] = system: HL-60(TB) leukemia
[13] = system: HOP-62 NSCLC
[14] = system: HOP-92 NSCLC
[15] = system: HS 578T breast
[16] = system: HT29 colon
[17] = system: IGROV1 ovarian
[18] = system: K-562 leukemia
[19] = system: KM12 colon
[20] = system: LOX IMVI melanoma
[21] = system: M14 melanoma
[22] = system: MALME-3M melanoma
[23] = system: MCF7 breast
[24] = system: MDA-MB-231 breast
[25] = system: MDA-MB-435
[26] = system: MOLT-4 leukemia
[27] = system: NCI-H226 lung
[28] = system: NCI-H23 lung
[29] = system: NCI-H460 lung
[30] = system: NCI-H522 lung
[31] = system: NCI/ADR-RES ovarian
[32] = system: OVCAR-3 ovarian
[33] = system: OVCAR-4 ovarian
[34] = system: OVCAR-8 ovarian
[35] = system: PC-3 prostate
[36] = system: RPMI-8226 leukemia
[37] = system: RXF 393 renal
[38] = system: SF-268 CNS
[39] = system: SF-295 CNS
[40] = system: SK-MEL-5 melanoma
[41] = system: SK-OV-3 ovarian
[42] = system: SN12C renal
[43] = system: SNB-19 CNS
[44] = system: SNB-75 CNS
[45] = system: SR leukemia
[46] = system: SW-620 colon
[47] = system: T-47D breast
[48] = system: TK-10 renal
[49] = system: U251 CNS
[50] = system: UACC-257 melanoma
[51] = system: UACC-62 melanoma
[52] = system: UO-31 renal

Clc1ccc2c(N3CCN(c4ccnc(NC5CCCCC5)n4)CC3)ccnc2c1
GI50 [1]: 1.69 µM | TGI [1]: 3.14 µM | GI50 [2]: 1.79 µM | TGI [2]: 8.22 µM | GI50 [3]: 3.17 µM | TGI [3]: 10.8 µM | GI50 [4]: 1.75 µM | TGI [4]: 3.31 µM | GI50 [5]: 2.21 µM | TGI [5]: 6.87 µM | GI50 [6]: 2.07 µM | TGI [6]: 6.07 µM | GI50 [7]: 1.77 µM | TGI [7]: 3.43 µM | GI50 [8]: 3.78 µM | TGI [8]: 13 µM | GI50 [9]: 1.93 µM | TGI [9]: 3.88 µM | GI50 [10]: 1.36 µM | TGI [10]: 2.8 µM | GI50 [11]: 2.26 µM | TGI [11]: 6.74 µM | GI50 [12]: 2.22 µM | TGI [12]: 5.07 µM | GI50 [13]: 2.35 µM | TGI [13]: 5.73 µM | GI50 [14]: 1.68 µM | TGI [14]: 4.99 µM | GI50 [15]: 2.41 µM | TGI [15]: 8.08 µM | GI50 [16]: 1.85 µM | TGI [16]: 4.06 µM | GI50 [17]: 2.27 µM | TGI [17]: 5.04 µM | GI50 [18]: 2.19 µM | TGI [18]: 5.43 µM | GI50 [19]: 2.16 µM | TGI [19]: 4.49 µM | GI50 [20]: 1.92 µM | TGI [20]: 3.46 µM | GI50 [21]: 1.78 µM | TGI [21]: 3.42 µM | GI50 [22]: 1.98 µM | TGI [22]: 4.02 µM | GI50 [23]: 1.76 µM | TGI [23]: 4.02 µM | GI50 [24]: 2.01 µM | TGI [24]: 3.97 µM | GI50 [25]: 1.91 µM | TGI [25]: 3.88 µM | GI50 [26]: 2.13 µM | TGI [26]: 5.47 µM | GI50 [27]: 3.41 µM | TGI [27]: 16.6 µM | GI50 [28]: 3.4 µM | TGI [28]: 9.71 µM | GI50 [29]: 2.05 µM | TGI [29]: 4.23 µM | GI50 [30]: 1.97 µM | TGI [30]: 3.84 µM | GI50 [31]: 2.44 µM | TGI [31]: 6.66 µM | GI50 [32]: 1.74 µM | TGI [32]: 3.49 µM | GI50 [33]: 2.56 µM | TGI [33]: 11.2 µM | GI50 [34]: 3.27 µM | TGI [34]: 12.6 µM | GI50 [35]: 1.56 µM | TGI [35]: 3.3 µM | GI50 [36]: 1.81 µM | TGI [36]: 4.69 µM | GI50 [37]: 1.84 µM | TGI [37]: 3.54 µM | GI50 [38]: 3.65 µM | TGI [38]: 13.3 µM | GI50 [39]: 1.91 µM | TGI [39]: 3.79 µM | GI50 [40]: 1.7 µM | TGI [40]: 3.14 µM | GI50 [41]: 4.2 µM | TGI [41]: 14 µM | GI50 [42]: 1.79 µM | TGI [42]: 3.6 µM | GI50 [43]: 2.47 µM | TGI [43]: 7.33 µM | GI50 [44]: 2.16 µM | TGI [44]: 6.74 µM | GI50 [45]: 1.83 µM | TGI [45]: 4.48 µM | GI50 [46]: 1.68 µM | TGI [46]: 3.72 µM | GI50 [47]: 2.11 µM | TGI [47]: 5.5 µM | GI50 [48]: 2.29 µM | TGI [48]: 5.16 µM | GI50 [49]: 1.62 µM | TGI [49]: 3 µM | GI50 [50]: 1.95 µM | TGI [50]: 4.11 µM | GI50 [51]: 1.7 µM | TGI [51]: 3.26 µM | GI50 [52]: 1.31 µM | TGI [52]: 2.87 µM
